Measurements taken from US20180169095A1, “THE USE OF SGC STIMULATORS, SGC ACTIVATORS, ALONE AND COMBINATIONS WITH PDE5 INHIBITORS FOR THE TREATMENT OF DIGITAL ULCERS (DU) CONCOMITANT TO SYSTEMIC SCLEROSIS (SSC)” (Bayer Pharma Aktiengesellschaft, priority 2015, published 2018).
Entries after “also recorded” stand apart in the source; their conditions may differ.

Test system: Tsk-1 mice
Experiment: Wound healing in Tsk-1 mice (tight-skin mouse model of SSc), 4 mm punch wounds
Format: in vivo
Conditions: for Healing time relative to healthy WT control mice (in words): TSK mice, no dose given; for Healing time relative to healthy WT control mice (in words) / Wound healing in tsk-1 mice versus placebo (in words): summary statement; for Reduction of wound size / Normalization of wound healing versus placebo-treated WT mice (68%±2%) / Wound healing in tsk-1 mice versus placebo (in words): tsk-1 mice; for Reduction of wound size / Normalization of wound healing versus placebo-treated WT mice (68%±2%): 3 days after punching; for Reduction of wound size: mean±SEM; for Normalization of wound healing versus placebo-treated WT mice (68%±2%): 45 ppm in mice chow; for Wound healing in tsk-1 mice versus placebo (in words): drug in food
Experimental: The tight-skin (Tsk-1) mouse model of SSc was used to evaluate the effects of compound according to formula (27) and (3) (BAY 41-2272 and BAY 63-2521) on wound healing in mice with substantial skin fibrosis. Due to an autosomal dominant mutation namely a tandem duplication of the fibrillin-1 gene, the phenotype of tsk-1 mice is characterized by an increased hypodermal thickness (Beyer et al. 2010). Genotyping of Tsk-1 mice was performed by PCR with the following primers: mutated fibrillin-1/tsk-1 forward primer: 5′-[…]-3′, reverse primer: 5′-[…]-3′.
The effects of either placebo (=vehicle for the compounds=0.5% tylose solution), or the compound according to formula (27) or (3), (BAY 41-2272 or BAY 63-2521) were studied in Tsk-1 mice. Tsk-1 mice were anaesthetized and carefully shaved 3 days before setting the wounds for exact quantification of the wound size. In order to avoid influences on wound healing by daily handling of the animals, the bi-daily gavage treatment was replaced by drug administration in the food. Mice received either normal mice chow (placebo) or mice chow, containing 15 and 45 ppm of compound according to formula (27), (BAY 41-2272) or containing 5 ppm, 15 ppm and 45 ppm of compound according to formula (3), (BAY 63-2521), respectively. […] Treatment groups consist of at least 8 tsk-1 mice per group. Treatment started on the day of shaving to achieve steady state exposure. Three days after shaving, mice were carefully anesthetized and round wounds were punched with 4 mm in diameter. 3 days after punching, mice were euthanized and the wound size was assessed. Statistical analysis of data was done by one-way ANOVA followed by Tuckey's multiple comparison post-hoc analysis

[1] = 15 ppm in mice chow (exposure similar to 1 mg/kg BID)
[2] = 45 ppm in mice chow (exposure similar to 3 mg/kg BID)

| SMILES | Healing time relative to healthy WT control mice (in words) | Reduction of wound size [1] | Reduction of wound size [2] | Normalization of wound healing versus placebo-treated WT mice (68%±2%) | Wound healing in tsk-1 mice versus placebo (in words) | Reduction of wound size (5 ppm in mice chow (exposure similar to 0.3 mg/kg BID)) |
| --- | --- | --- | --- | --- | --- | --- |
| Nc1nc(-c2nn(Cc3ccccc3F)c3ncccc23)ncc1C1CC1 [(27)] | normalized the healing time to healthy WT control mice | 64±2% | 73±2% | normalized wound healing to a similar extent as observed in placebo-treated WT mice | significantly and dose-dependently accelerated wound healing; also recorded: significantly and dose-dependently improved |  |
| COC(=O)N(C)c1c(N)nc(-c2nn(Cc3ccccc3F)c3ncccc23)nc1N [(3)] | normalized the healing time to healthy WT control mice | 65±3% | 70%±2% | normalized wound healing to a similar extent as observed in placebo-treated WT mice | significantly and dose-dependently accelerated wound healing; also recorded: dose-dependently and significantly accelerated wound healing; also recorded: significantly and dose-dependently improved | 59%±4% |
